Experimental data published in ChEMBL document CHEMBL3885861, “Open TG-GATES”.

Species: Rattus norvegicus
Assay: Open TG-GATES - Regimen: Daily Repeat
Format: toxicity, organism-based, Sprague-Dawley
Parameters: regimen Daily Repeat, gender Male, age 6 weeks
Conditions: in vivo, po, 0 mg/kg, route gavage, dose level Control; for APTT / Bas / Eos / Fbg / Hb / Ht / Lym / MCH / MCHC / MCV / Mono / Neu / PT / Plat / RBC / Ret / WBC: tissue Blood
[1] = 72 h, tissue Kidney, time 3 day
[2] = 72 h, tissue Plasma, time 3 day

CCCNC(=O)NS(=O)(=O)c1ccc(Cl)cc1 [CHLORPROPAMIDE]
TERMINAL_BW (72 h, time 3 day): 215.2 g | APTT (72 h, time 3 day): 17.7 s | Bas (72 h, time 3 day): 0.2% | Eos (72 h, time 3 day): 1% | Fbg (72 h, time 3 day): 289.2 mg/dL | Hb (72 h, time 3 day): 13.2 g/dL | Ht (72 h, time 3 day): 40.3% | Lym (72 h, time 3 day): 78% | MCH (72 h, time 3 day): 21.8 pg | MCHC (72 h, time 3 day): 32.8% | MCV (72 h, time 3 day): 66.6 fL | Mono (72 h, time 3 day): 4% | Neu (72 h, time 3 day): 16% | PT (72 h, time 3 day): 15.4 s | Plat (72 h, time 3 day): 120.9 x10_4/uL | RBC (72 h, time 3 day): 605.6 x10_4/ul | Ret (72 h, time 3 day): 7.5% | WBC (72 h, time 3 day): 84 x10_2/uL | KIDNEY_L [1]: 0.9 g | KIDNEY_R [1]: 0.9 g | KIDNEY_TOTAL [1]: 1.9 g | LIVER (72 h, tissue Liver, time 3 day): 10.4 g | A/G [2]: 0.9 | ALP [2]: 1591.4 IU/L | ALT [2]: 48.2 IU/L | AST [2]: 71.6 IU/L | BUN [2]: 16.8 mg/dL | CRE [2]: 0.2 mg/dL | Ca [2]: 10.8 mg/dL | Cl [2]: 105 meq/L | DBIL [2]: 0.01 mg/dL | GLC [2]: 184 mg/dL | IP [2]: 7.3 mg/dL | K [2]: 4 meq/L | LDH [2]: 95.2 IU/L | Na [2]: 142.2 meq/L | PL [2]: 154.6 mg/dL | RALB [2]: 2.7 g/dL | TBIL [2]: 0.034 mg/dL | TC [2]: 80.4 mg/dL | TG [2]: 107.2 mg/dL | TP [2]: 5.8 g/dL | gamma-GTP [2]: 1 IU/L | TERMINAL_BW ([…], time 7 day): 251.8 g | TERMINAL_BW ([…], time 14 day): 307.1 g | TERMINAL_BW ([…], time 28 day): 390.8 g | APTT ([…], time 7 day): 17.6 s | Bas ([…], time 7 day): 0.2% | Eos ([…], time 7 day): 1% | Fbg ([…], time 7 day): 294 mg/dL | Hb ([…], time 7 day): 13.7 g/dL | Ht ([…], time 7 day): 40.9% | Lym ([…], time 7 day): 76.2% | MCH ([…], time 7 day): 21.6 pg | MCHC ([…], time 7 day): 33.4% | MCV ([…], time 7 day): 64.7 fL | Mono ([…], time 7 day): 2.6% | Neu ([…], time 7 day): 18.8% | PT ([…], time 7 day): 15.5 s | Plat ([…], time 7 day): 124.5 x10_4/uL | RBC ([…], time 7 day): 632 x10_4/ul | Ret ([…], time 7 day): 6.4% | WBC ([…], time 7 day): 98.4 x10_2/uL | APTT ([…], time 14 day): 18.5 s | Bas ([…], time 14 day): 0.2% | Eos ([…], time 14 day): 1% | Fbg ([…], time 14 day): 274 mg/dL | Hb ([…], time 14 day): 14.5 g/dL | Ht ([…], time 14 day): 42.8% | Lym ([…], time 14 day): 78.4% | MCH ([…], time 14 day): 20.6 pg | MCHC ([…], time 14 day): 33.8% | MCV ([…], time 14 day): 60.8 fL | Mono ([…], time 14 day): 2.4% | Neu ([…], time 14 day): 17.4% | PT ([…], time 14 day): 15.2 s | Plat ([…], time 14 day): 122.4 x10_4/uL | RBC ([…], time 14 day): 703.6 x10_4/ul | Ret ([…], time 14 day): 4.5% | WBC ([…], time 14 day): 115.5 x10_2/uL | APTT ([…], time 28 day): 20.6 s | Bas ([…], time 28 day): 0.2% | Eos ([…], time 28 day): 1.2% | Fbg ([…], time 28 day): 259.6 mg/dL | Hb ([…], time 28 day): 14.9 g/dL | Ht ([…], time 28 day): 45.3%
